Test results reported in patent US20190110478A1, “ANTIBACTERIAL COMPOSITION, ANTIBACTERIAL FILM, ANTIBACTERIAL FILM-ATTACHED SUBSTRATE, METHOD FOR MANUFACTURING ANTIBACTERIAL FILM, AND METHOD FOR MANUFACTURING ANTIBACTERIAL FILM-ATTACHED SUBSTRATE” (FUJIFILM Corporation, priority 2016, published 2019).

Experiment: Viscosity characteristics of water-insoluble nitrogen-containing compound (rotary viscometer)
Type: physicochemical
Details: 1% by mass solid content in propylene glycol monomethyl ether, 25° C.
Experimental: In a case in which a water-insoluble nitrogen-containing compound is dissolved in propylene glycol monomethyl ether to obtain a solution having a solid content of 1% by mass, the viscosity of the solution at 25° C. as measured using a rotary viscometer is 10 mPa·s or higher.

For `CC(C)(C)c1ccc(O)c(-n2nc3ccccc3n2)c1` [TINUVIN PS], which Viscosity of solution is on record?
The Viscosity of solution was 2.1 mPa·s.
